A melting point compilation (Tetko et al.; mined from patent text by program, amines drawn as free bases though some values may be those of a salt)

`Cc1nc(NCCc2ccccc2)c2c(n1)N(c1ccccc1)CC2` gave a melting point of 105 to 106 °C.
With `COC(=O)NS(=O)(=O)Oc1c(C(C)C)cccc1C(C)C` the melting point was 92 to 95 °C.
For `O=C(OCc1ccccc1)c1cc2cc([N+](=O)[O-])ccc2[nH]1`, the melting point was 192 °C.
Work on `Fc1ccc(/C=C/c2cc(F)cc(F)c2)cc1` yielded a melting point of 47 °C.
`CN(C)c1ccc(C=NCCc2cccs2)cc1` showed a melting point of 76.8 to 77 °C.
`CN1Cc2cc(C(O)CN3CCC(COc4ccccc4)CC3)ccc2NC1=O` (stereo unspecified) showed a melting point of 205 °C.
With `CCOC(=O)c1cn(CC)c2cc(-c3csc(CN(C)C(C)=O)n3)c(F)cc2c1=O` the melting point was 173 to 175 °C.
In the case of `O=C1O[C@@H](c2ccccc2)N(C(=O)OCc2ccccc2)[C@H]1Cc1ccccc1`, the melting point is reported as 120 to 122 °C.
`CCOP(=O)(O)Cc1ccc(NC(=O)CCc2cnoc2-c2ccccc2)cc1` showed a melting point of 80 to 82 °C.
Work on `CCCOc1ccc(F)c2c(=O)c3ccccc3sc12` yielded a melting point of 125 to 127 °C.
Molecule `O=C(NNC(=O)c1occc1-c1cccc(OCc2ccccc2)c1)c1ccc(O)c([N+](=O)[O-])c1` has a melting point of 171 to 173 °C.
In the case of `Cc1nc2cc3c(cc2s1)C1(CO3)C(=O)N(CC2CCOCC2)c2ccccc21` (stereo unspecified), the melting point is reported as 186 to 187 °C.
`Cc1c(-c2ccc(F)cc2)[nH]c(N2CCOCC2)c1C#N` showed a melting point of 245 to 247 °C.
`Cn1c(C(F)(F)F)cc(=O)n(-c2ccc3snc(C=O)c3c2)c1=O` gave a melting point of 193 to 194 °C.
`COc1cc2ccc(CC(=S)N3CCOCC3)cc2c(C)c1OC` gave a melting point of 100 to 103 °C.
In the case of `O=C1CC2(CCCC2)C(=O)N1c1cc(Cc2n[nH]c(=O)c3ccccc23)ccc1F`, the melting point is reported as 215 to 220 °C.
`CN(C)c1ccc2c(c1)N(CCCN1CCC(C(=O)O)CC1)c1ccccc1CC2` gave a melting point of 198 to 202 °C.
In the case of `CCCC[C@H](NC(=O)[C@H](CCCC)NC(=O)OCc1ccccc1)C(=O)CSCc1ccco1`, the melting point is reported as 95 to 97 °C.
Molecule `C[C@@H]1Oc2ccccc2C(=O)[C@H]1n1ccnc1` (relative stereo) has a melting point of 144 to 146 °C.
For `COC1c2ccccc2CSc2ccc(Br)cc21` (stereo unspecified), the melting point was 68 to 71 °C.
`CCN(CC)C(=O)n1ccc(Sc2ccc(Br)cc2Cl)n1` showed a melting point of 77 to 79 °C.
Molecule `C[C@H](Cn1cccn1)NC(=O)c1c[nH]c2ncc(-c3nn(C)c4cc(F)ccc34)nc12` has a melting point of 252 to 253 °C.
For `COc1ccccc1N(CN1C(=O)CN(C)C1=O)C(C)=O`, the melting point was 169 to 172 °C.
Work on `CCCC(=O)c1ccccc1NC(C)=O` yielded a melting point of 46.5 to 47 °C.
`CN(C(=O)OC(C)(C)C)c1cc(Oc2ccccc2N2CCCCC2)ccc1N` gave a melting point of 108 to 110 °C.
`O=C(NCc1ccc(F)cc1)c1cn2nc(N3CCN(C(=O)c4ccccc4C(F)(F)F)CC3)ccc2n1` showed a melting point of 205 to 207 °C.
For `CCN(Cc1cc(Br)ccc1NCc1ccccc1)c1ccc(C(=O)O)nn1`, the melting point was 176 °C.
Molecule `COC1=C(OC)C(=O)c2c(NC(C)=O)cccc2C1=O` has a melting point of 162 to 163 °C.
With `Cc1cccc(-c2nc3cccnn3c2-c2ccnc(NCCN3CCCCC3)c2)c1` the melting point was 143 to 144 °C.
Work on `O=C(NCc1noc(-c2c3ccccc3nn2CCn2ccnc2)n1)c1ccccc1` yielded a melting point of 167 to 168 °C.
Molecule `Cc1nc(-n2cc(C(O)c3ccccc3)nn2)sc1C(=O)NCc1ccccc1` (stereo unspecified) has a melting point of 143 to 146 °C.
With `CC(=O)c1sc(N2CCN(CCC3CC3)C2=O)nc1C` the melting point was 82 to 83 °C.
`CN(c1ccc(Cl)cc1)c1nc(=O)c2cccnc2s1` gave a melting point of 189 to 190 °C.
Molecule `CCN(CC)c1nc(N)nc(-c2cc(Cl)ccc2Cl)n1` has a melting point of 137 to 138 °C.
Work on `CCn1cc(C(=O)O)c(=O)c2cc(F)c(N3CCNC(c4c[nH]c5ccccc45)C3)cc21` (stereo unspecified) yielded a melting point of 230 °C.
For `CC(C)=CCn1c(=S)sc2c(=O)[nH]c(N)nc21`, the melting point was over 320 °C.
With `O=C(O)C1c2ccccc2COc2ccc(I)cc21` (stereo unspecified) the melting point was 191 to 192 °C.
`NNC(=O)C(F)(F)C(F)(F)C(F)(F)F` showed a melting point of 138 to 142 °C.
`CCCCCNS(=O)(=O)NC(=O)/C=C/c1ccc(OCCOC)cc1Oc1ncc(C(F)(F)F)cc1Cl` gave a melting point of 120 to 122 °C.
Work on `Cc1ncncc1C(=O)Nc1ccc(-n2nc(C(F)(F)F)c(Cl)c2C2CC2)c(F)c1` yielded a melting point of 183 to 185 °C.
`COC(=O)CSc1cc(C)ccc1[N+](=O)[O-]` gave a melting point of 74 to 75 °C.
In the case of `CCC(=O)Oc1ccc(-c2nn(C3CCCC3)c3c(F)cccc23)cc1`, the melting point is reported as 60 to 61 °C.
Molecule `CCC1CC(=O)N(Cc2ccc(NC(=O)C(C)(C)C)cc2)N=C1c1ccc(OC)c(OC)c1` (stereo unspecified) has a melting point of 117 °C.
Work on `CC1(C)CC(=O)CC(C)(C)c2cc(Br)ccc21` yielded a melting point of 104 to 105 °C.
Molecule `Fc1ccc(C(=S)N2CCCC(c3ccc(Cl)c(Cl)c3)=N2)cc1F` has a melting point of 135 to 136 °C.
Work on `CCn1c(=O)c2c(ncn2CCCCC(O)CO)n(CC)c1=O` (stereo unspecified) yielded a melting point of 77 to 78 °C.
With `O=C1SC(Cc2ccc(OCCON=Cc3ccc(-c4ccccc4)cc3)cc2)C(=O)N1C(c1ccccc1)(c1ccccc1)c1ccccc1` (stereo unspecified) the melting point was 157 to 159 °C.
Molecule `Cc1nc(-c2cccnc2)sc1-c1ccnc(Nc2ccc(N3CCCC3)cc2)n1` has a melting point of 212 to 214 °C.
Molecule `CNC(c1ccnc(F)c1)C(O)c1cccc(C(F)(F)F)c1` (stereo unspecified) has a melting point of 99 to 102 °C.
For `O=[N+]([O-])c1ccc2c(C3=CCN(CCCOc4cccc5[nH]ccc45)CC3)c[nH]c2c1`, the melting point was 215 to 225 °C.
In the case of `CC(C)(C)OC(=O)NCCCC(=O)NCCC(=O)OCc1ccccc1`, the melting point is reported as 54 to 55 °C.
With `Cn1ncnc1COc1nn2c(-c3ccccc3)nnc2cc1C1CCCCC1` the melting point was 192 °C.
`CC(C)(C)N[C@H](Cc1ccccc1)C(=O)O` showed a melting point of 79 to 80 °C.
For `CC(C)CC(=O)Nc1cccc(-c2ccnc3c(-c4ccc(Cl)cc4)cnn23)c1`, the melting point was 215 to 217 °C.
`O=S(=O)(Nc1cccc(CCOCc2csc(-c3ccc(OC(F)(F)F)cc3)n2)c1)C(F)(F)F` showed a melting point of 115 to 116 °C.
Molecule `COc1cccc2cc3c(c(-c4ccc5c(c4)OCO5)c12)C(=O)NC3=O` has a melting point of 291 to 293 °C.
For `CC1=C(c2ccncc2)SC(OC(=O)c2cccc(Cl)c2)C(=O)N1` (stereo unspecified), the melting point was 142 to 143 °C.
For `Cc1ccc(/C=C/c2nc(COc3ccc(CCCCn4ccnc4CCO)cc3)co2)cc1`, the melting point was 108 to 109 °C.
With `CCOC(=O)C1=C(C)NC(C#N)=C(C(=O)OCC)C1c1ccccc1C(F)(F)F` (stereo unspecified) the melting point was 140 to 143 °C.
With `CC1=C(/C=C/S(=O)(=O)NC(C)C)C(c2cccc([N+](=O)[O-])c2)C(C(=O)OCC(F)(F)F)=C(C)N1` (stereo unspecified) the melting point was 180 to 182 °C.
For `CC(CSC(=S)c1ccccc1)C(=O)N1CCCC1C(=O)O` (stereo unspecified), the melting point was 157 to 158 °C.
In the case of `Cc1cc(F)ccc1-c1nc(NC2CCCCC2)nc2c1ccc(=O)n2-c1ccccc1F`, the melting point is reported as 181 to 182 °C.
With `CC(=O)Nc1ccc2c(c1)N(C1CCN(CCc3ccc(F)cc3)CC1)CC2` the melting point was 148 to 150 °C.
Molecule `CSc1ccc(-c2nn(Cc3ccccc3)c(=O)cc2-c2ccc(F)cc2)cc1` has a melting point of 141 °C.
`COc1cc2c(O)c3c4c(ccnc4c2cc1OC)CCC3` gave a melting point of 218 °C.
With `O=c1[nH]c2ncc(-c3ccc(O)cc3)nc2n1CCC1CCOCC1` the melting point was 276 to 277 °C.
Work on `CC(C)N1CCN(Cc2ccc(NC(=O)c3cccc4cc(Oc5cc(N)ncn5)ccc34)cc2C(F)(F)F)CC1` yielded a melting point of 185 to 189 °C.
Work on `O=C(O)C1=Cc2cc(-c3ccc(Cl)cc3)ccc2OCC1` yielded a melting point of 263 to 264 °C.
`COc1cc(C=CC(=O)Nc2cnc3c(C)c(Cl)ccc3c2-c2ccccc2C)cc(OC)c1OC(C)=O` showed a melting point of 213 to 214 °C.
`COC=C(C(=O)OC)c1csc2ccc(COc3ccccc3)cc12` showed a melting point of 130 °C.
With `O=C1Nc2ccc(Cl)cc2C1(Cl)c1ccccc1OC(F)(F)F` (stereo unspecified) the melting point was 185 °C.
`CCc1ccc(-c2nc3cccnc3n2-c2ccc(CCNC[C@H](O)COc3ccc(O)cc3)cc2)cc1` gave a melting point of 75 to 78 °C.
Work on `CCC(CC)c1nn(-c2ccc(C(F)(F)F)cn2)cc1CCCOc1ccccc1CC(=O)O` yielded a melting point of 65 to 66 °C.
`COc1c(Cl)ccc(C(=O)O)c1F` showed a melting point of 183 to 184 °C.
Work on `CC(C)(C)n1cnc(-c2ccc(F)cc2)c1-c1ccncc1` yielded a melting point of 199 °C.
Work on `Nc1ccc2c(c1-c1n[nH]cc1Cl)OC(F)(F)O2` yielded a melting point of 195 °C.
In the case of `Cc1nccn1CC1CCc2c(c3ccccc3n2C)/C1=N/O` (stereo unspecified), the melting point is reported as 231 to 233 °C.
For `Cc1nc(-n2cnn(Cc3ccc(F)cc3)c2=O)sc1C(=O)NCc1nccs1`, the melting point was 189 to 190 °C.
For `Cn1c(-c2ccc(Cl)cc2)cc2ncccc2c1=O`, the melting point was 139 to 140 °C.
Molecule `COc1ccc(N2CCN(c3c(C)c(C)c4c(c3C)CC(C)(CNC(C)=O)O4)CC2)cc1` (stereo unspecified) has a melting point of 146 to 152 °C.
For `O=C(Cc1ccccc1)c1c(O)c2cccnc2n(-c2ccccc2)c1=O`, the melting point was 169 to 170 °C.
For `O=c1cc(C(F)(F)F)ccn1-c1c(Cl)cc(C(Cl)Cl)cc1Cl`, the melting point was 176 to 177 °C.
With `CNC(=O)c1ccc(C)c(-c2nc(S(C)(=O)=O)nc3c2CNC(=O)N3c2c(F)cccc2F)c1` the melting point was 275 to 278 °C.
Work on `CCCCCCCCCCCC(=O)N1CCc2nc3ccccc3c(C)c2CC1` yielded a melting point of 100 °C.
`CC(=O)NC[C@H]1CN(c2ccc(N3CCC(O)(C(N)=O)CC3)c(F)c2)C(=O)O1` showed a melting point of 238 to 240 °C.
With `O=C(O)[C@H](Cc1c[nH]c2ccccc12)NS(=O)(=O)c1ccc(F)cc1` the melting point was 57 to 60 °C.
For `O=C(CCCCN1CCCCC1)c1ccc2c(c1)Sc1cc(C(=O)CCCCN3CCCCC3)ccc1O2`, the melting point was 128 to 130 °C.
In the case of `CCCCCCCCCCCCCC(=O)OCC1(CO)CCC(=O)O1` (stereo unspecified), the melting point is reported as 65 to 66 °C.
`CCC1=NC(NC(=O)Nc2cccc(C)c2)C(=O)N(CC(=O)C2CCCCC2)c2c(C)cccc21` (stereo unspecified) gave a melting point of 161 to 164 °C.
`Cc1cccc(NC(=O)NC2N=C(c3ccccc3F)c3ccccc3N(Cc3ccccn3)C2=O)c1` (racemic) gave a melting point of 215 to 216 °C.
For `COc1cc(C(=O)N2Cc3ccc(C(=O)NCc4ccccc4)n3Cc3ccccc32)ccc1-c1ccccc1C`, the melting point was 170 to 174 °C.
`Cc1cc(-c2ccccc2C#N)ccc1[N+](=O)[O-]` showed a melting point of 128 to 136 °C.
`O=C(Nc1cccnc1)N1CCc2cc(C(F)(F)F)ccc21` gave a melting point of 188 to 189 °C.
Work on `CN(C)/C=C/C(=C(C#N)C#N)c1ccc2cc(N(C)C)ccc2c1` yielded a melting point of 213 to 215 °C.
`Cc1c(S(=O)(=O)Nc2ccc(-c3nc(C(=O)O)co3)cc2S(C)(=O)=O)sc2ccc(F)cc12` showed a melting point of 289 to 291 °C.
For `CCOC(=O)c1cn(-c2nc(NC(C)(C)CC(C)(C)C)ccc2F)c2c(Cl)c(F)c(F)cc2c1=O`, the melting point was 178 to 180 °C.
